Experimental data taken from ChEMBL document CHEMBL4732077, “Potent and orally active purine-based fetal hemoglobin inducers for treating β-thalassemia and sickle cell disease” (Eur J Med Chem, 2021).
One block for each compound: values may come before it.

How the values were obtained:
[1] = Induction of gamma-globin gene expression in human erythrocytes at 0.625 uM after 3 days by RT-PCR analysis relative to control; type: functional, Erythrocyte; conditions: time 3 day
[2] = Cytotoxicity against human erythrocytes assessed as cell viability at 0.625 uM after 3 days alamar blue assay relative to control; type: cell-based, Erythrocyte; conditions: time 3 day, read-out: Activity
[3] = Cytotoxicity against human erythrocytes assessed as cell viability after 3 days alamar blue assay; type: cell-based, Erythrocyte; conditions: time 3 day
[4] = Induction of gamma-globin gene expression in human erythrocytes at 250 uM after 3 days by RT-PCR analysis relative to control; type: functional, Erythrocyte; conditions: time 3 day
[5] = Cytotoxicity against human erythrocytes assessed as cell viability at 10 uM after 3 days alamar blue assay relative to control; type: cell-based, Erythrocyte; conditions: time 3 day, read-out: Activity
[6] = Induction of gamma-globin gene expression in human erythrocytes at 10 uM after 3 days by RT-PCR analysis relative to control; type: functional, Erythrocyte; conditions: time 3 day
[7] = Induction of gamma-globin gene expression in human erythrocytes at 5 uM after 3 days by RT-PCR analysis relative to control; type: functional, Erythrocyte; conditions: time 3 day
[8] = Cytotoxicity against human erythrocytes assessed as cell viability at 5 uM after 3 days alamar blue assay relative to control; type: cell-based, Erythrocyte; conditions: time 3 day, read-out: Activity
[9] = Induction of gamma-globin gene expression in human erythrocytes at 1.25 uM after 3 days by RT-PCR analysis relative to control; type: functional, Erythrocyte; conditions: time 3 day
[10] = Cytotoxicity against human erythrocytes assessed as cell viability at 1.25 uM after 3 days alamar blue assay relative to control; type: cell-based, Erythrocyte; conditions: time 3 day, read-out: Activity
[11] = Induction of gamma-globin gene expression in human erythrocytes at 0.4 uM after 3 days by RT-PCR analysis relative to control; type: functional, Erythrocyte; conditions: time 3 day
[12] = Cytotoxicity against human erythrocytes assessed as cell viability at 0.4 uM after 3 days alamar blue assay relative to control; type: cell-based, Erythrocyte; conditions: time 3 day, read-out: Activity
[13] = Cytotoxicity against human erythrocytes assessed as cell viability at 15 uM after 3 days alamar blue assay relative to control; type: cell-based, Erythrocyte; conditions: time 3 day, read-out: Activity
[14] = Induction of gamma-globin gene expression in human erythrocytes at 15 uM after 3 days by RT-PCR analysis relative to control; type: functional, Erythrocyte; conditions: time 3 day
[15] = Half life in Sprague-Dawley rat at 2 mg/kg, iv measured upto 24 hrs by LC-MS/MS analysis; type: ADME, organism-based; conditions: in vivo
[16] = Water solubility of compound at pH 7.4 after 24 hrs by LC/MS analysis; type: physicochemical; conditions: buffer, pH 7.4, 24 h
[17] = Volume of distribution at steady state in Sprague-Dawley rat at 2 mg/kg, iv measured upto 24 hrs by LC-MS/MS analysis; type: ADME, organism-based; conditions: in vivo, read-out: Vdss
[18] = AUC (0 to infinity) in Sprague-Dawley rat at 2 mg/kg, iv measured upto 24 hrs by LC-MS/MS analysis; type: ADME, organism-based; set-up: route intravenous, dose 2 mg/kg, time <=24; conditions: in vivo
[19] = Induction of gamma-globin gene expression in human erythrocytes at 0.1 uM after 3 days by RT-PCR analysis relative to control; type: functional, Erythrocyte; conditions: time 3 day
[20] = Clearance in Sprague-Dawley rat at 2 mg/kg, iv measured upto 24 hrs by LC-MS/MS analysis; type: ADME, organism-based; conditions: in vivo
[21] = Cytotoxicity against human erythrocytes assessed as cell viability at 0.1 uM after 3 days alamar blue assay relative to control; type: cell-based, Erythrocyte; conditions: time 3 day, read-out: Activity
[22] = Induction of gamma-globin gene expression in human erythrocytes at 0.83 uM after 3 days by RT-PCR analysis relative to control; type: functional, Erythrocyte; conditions: time 3 day
[23] = Cytotoxicity against human erythrocytes assessed as cell viability at 0.83 uM after 3 days alamar blue assay relative to control; type: cell-based, Erythrocyte; conditions: time 3 day, read-out: Activity

Structure (SMILES): CCN1CCN(c2nc(Nc3cccc(C(=O)Nc4ccc(-c5ccccc5)cc4)c3)c3ncn(CC)c3n2)CC1
- fold change (FC) [1]: 0.84
- viability at 72 h, 0.625 µM [2]: 105%

Structure (SMILES): CCCC(=O)[O-].[Na+] [SODIUM BUTYRATE]
- CC50 at 72 h [3]: 222 µM
- fold change (FC) [4]: 1.3

Structure (SMILES): Cc1ccc(C#CC(=O)Nc2cccc(Nc3nc(N[C@H]4CC[C@H](O)CC4)nc4scnc34)c2)cc1
- viability at 72 h, 10 µM [5]: 19%
- fold change (FC) [6]: 0.87

Structure (SMILES): CCn1cnc2c(Nc3cccc(NC(=O)C#Cc4ccc(C)cc4)c3)nc(N3CCC(N(C)C)CC3)nc21.Cl.Cl
- fold change (FC) [1]: 1.7
- viability at 72 h, 0.625 µM [2]: 75%

Structure (SMILES): CCn1cnc2c(Nc3cccc(NC(=O)C#Cc4ccc(C)cc4)c3)nc(N3CCN(CCF)CC3)nc21.Cl.Cl
- fold change (FC) [7]: 4.6
- viability at 72 h, 5 µM [8]: 50%

Structure (SMILES): CCN1CCN(c2nc(Nc3cccc(NC(=O)[C@@H]4C[C@H]4c4ccccc4)c3)c3ncn(CC)c3n2)CC1
- fold change (FC) [9]: 1.1
- viability at 72 h, 1.25 µM [10]: 77%

Structure (SMILES): CCn1cnc2c(Nc3cccc(NC(=O)C#Cc4ccc(C)cc4)c3)nc(OCCN3CCOCC3)nc21
- fold change (FC) [11]: 2.6
- viability at 72 h, 0.4 µM [12]: 78%

Structure (SMILES): CCN1CCN(c2nc(Nc3cccc(NC(=O)N4CCN(c5ccc(F)cc5)CC4)c3)c3ncn(CC)c3n2)CC1
- viability at 72 h, 10 µM [5]: 8%
- fold change (FC) [6]: 2.2

Structure (SMILES): CCn1cnc2c(Nc3cccc(NC(=O)C#Cc4ccc(C)cc4)c3)ncnc21
- viability at 72 h, 15 µM [13]: 75%
- fold change (FC) [14]: 4.1

Structure (SMILES): CCn1cnc2c(Nc3cccc(NC(=O)C#Cc4ccc(C)cc4)c3)nc(N3CCN(CCO)CC3)nc21
- fold change (FC) [9]: 4.6
- viability at 72 h, 1.25 µM [10]: 58%

- half-life [15]: 10.2 h
- solubility [16]: < 0.01 µg/mL
- Vd [17]: 3.8 L/kg
- AUC(0-inf) [18]: 610 ng·h/mL
- clearance [20]: 60.9 mL/min/kg
Structure (SMILES): CCn1cnc2c(Nc3cccc(NC(=O)C#Cc4ccc(C)cc4)c3)nc(N[C@H]3CC[C@H](O)CC3)nc21
- fold change (FC) [19]: 1.4
- viability at 72 h, 0.1 µM [21]: 61%

Structure (SMILES): CCN1CCN(c2nc(Nc3cccc(C(=O)N[C@@H]4C[C@H]4c4ccccc4)c3)c3ncn(CC)c3n2)CC1
- fold change (FC) [22]: 1.3
- viability at 72 h, 0.83 µM [23]: 71%

Structure (SMILES): Cc1ccc(C#CC(=O)Nc2cccc(Nc3nc(N[C@H]4CC[C@H](O)CC4)nc4ccccc34)c2)cc1
- fold change (FC) [9]: 1.8
- viability at 72 h, 1.25 µM [10]: 46%

Structure (SMILES): CCN1CCN(c2nc(Nc3cccc(NC(=O)/C=C/c4ccccc4)c3)c3ncn(CC)c3n2)CC1
- fold change (FC) [9]: 2.3
- viability at 72 h, 1.25 µM [10]: 128%

Structure (SMILES): CCn1cnc2c(Nc3cccc(NC(=O)C#Cc4ccc(C)cc4)c3)nc(N3CCC(N(C)C)C3)nc21 (configuration not stated)
- fold change (FC) [9]: 1.5
- viability at 72 h, 1.25 µM [10]: 53%

Structure (SMILES): Cc1ccc(C#CC(=O)Nc2cccc(Nc3ncnc4oc(-c5ccccc5)nc34)c2)cc1
- viability at 72 h, 10 µM [5]: 103%
- fold change (FC) [6]: 1.2
